Test results taken from the supplement of paper PMC10307832.

Assays:
Test in all cases: relative viability (nuclei count vs DMSO), 5 days (fraction); higher = more cells survive
NCI-H2009 = test system: NCI-H2009
In short: (§1)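 Lung cancer cell lines were pin-tool dosed in 1536-well plates on the day after seeding, with either a lone drug or a fixed anchor-drug dose plus five library-drug doses (not always all listed) in √10 steps. Nuclei were counted on 4× images after 5 days. Relative viability is the ratio of treated-well to vehicle-well nuclei counts, with each value a median of duplicate plates.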

HCC-366 = test system: HCC-366
In short: as §1

NCI-H661 = test system: NCI-H661
In short: as §1

EKVX = test system: EKVX
In short: as §1

NCI-H2405 = test system: NCI-H2405
In short: as §1

SK-MES-1 = test system: SK-MES-1
In short: as §1

HCC-44 = test system: HCC-44
In short: as §1

BEN = test system: BEN
In short: as §1

SK-LU-1 = test system: SK-LU-1
In short: as §1

LC-2-ad = test system: LC-2-ad
In short: as §1

NCI-H2170 = test system: NCI-H2170
In short: as §1

NCI-H1792 = test system: NCI-H1792
In short: as §1

NCI-H596 = test system: NCI-H596
In short: as §1

HARA = test system: HARA
In short: as §1

LOU-NH91 = test system: LOU-NH91
In short: as §1

NCI-H2087 = test system: NCI-H2087
In short: as §1

NCI-H1734 = test system: NCI-H1734
In short: as §1

NCI-H2228 = test system: NCI-H2228
In short: as §1

NCI-H647 = test system: NCI-H647
In short: as §1

NCI-H1355 = test system: NCI-H1355
In short: as §1

HCC-827 = test system: HCC-827
In short: as §1

NCI-H1395 = test system: NCI-H1395
In short: as §1

NCI-H1437 = test system: NCI-H1437
In short: as §1

Question: For `C[C@@H]1CN(CC(=O)Nc2ccc3c(c2)Cc2cccc(-c4cc(=O)cc(N5CCOCC5)o4)c2S3)C[C@H](C)O1` + CS(=O)(=O)N1CCN(Cc2cc3nc(-c4cccc5[nH]ncc45)nc(N4CCOCC4)c3s2)CC1 [Pictilisib] (partner 1 µM), which relative viability (NCI-H2009; first compound 0.04 µM) is on record?
Answer: The relative viability was 0.909.

Question: And the relative viability (NCI-H2009; first compound 0.1265 µM)?
Answer: Its relative viability is 0.84.

Question: And the relative viability (NCI-H2009; first compound 0.4 µM)?
Answer: The relative viability was 0.816.

Question: What about the relative viability (NCI-H2009; first compound 4 µM) of the same molecule?
Answer: Its relative viability is 0.588.

Question: And the relative viability (HCC-366; first compound 0.04 µM)?
Answer: The relative viability was 0.151.

Question: What about the relative viability (HCC-366; first compound 0.1265 µM) of the same molecule?
Answer: The relative viability was 0.142.

Question: And the relative viability (HCC-366; first compound 0.4 µM)?
Answer: The relative viability was 0.138.

Question: And the relative viability (HCC-366; first compound 4 µM)?
Answer: Its relative viability is 0.112.

Question: And the relative viability (NCI-H661; first compound 0.04 µM)?
Answer: The relative viability was 0.408.

Question: What about the relative viability (NCI-H661; first compound 0.1265 µM) of the same molecule?
Answer: Its relative viability is 0.381.

Question: And the relative viability (NCI-H661; first compound 0.4 µM)?
Answer: The relative viability was 0.381.

Question: What about the relative viability (NCI-H661; first compound 4 µM) of the same molecule?
Answer: Its relative viability is 0.448.

Question: And the relative viability (EKVX; first compound 0.04 µM)?
Answer: Its relative viability is 0.412.

Question: What about the relative viability (EKVX; first compound 0.1265 µM) of the same molecule?
Answer: Its relative viability is 0.444.

Question: What about the relative viability (EKVX; first compound 0.4 µM) of the same molecule?
Answer: Its relative viability is 0.414.

Question: And the relative viability (EKVX; first compound 4 µM)?
Answer: Its relative viability is 0.428.

Question: What about the relative viability (NCI-H2405; first compound 0.04 µM) of the same molecule?
Answer: Its relative viability is 0.414.

Question: What about the relative viability (NCI-H2405; first compound 0.1265 µM) of the same molecule?
Answer: The relative viability was 0.461.

Question: What about the relative viability (NCI-H2405; first compound 0.4 µM) of the same molecule?
Answer: The relative viability was 0.358.

Question: What about the relative viability (NCI-H2405; first compound 4 µM) of the same molecule?
Answer: The relative viability was 0.406.

Question: What about the relative viability (SK-MES-1; first compound 0.04 µM) of the same molecule?
Answer: The relative viability was 0.381.

Question: And the relative viability (SK-MES-1; first compound 0.1265 µM)?
Answer: Its relative viability is 0.377.

Question: What about the relative viability (SK-MES-1; first compound 0.4 µM) of the same molecule?
Answer: Its relative viability is 0.356.

Question: And the relative viability (SK-MES-1; first compound 4 µM)?
Answer: The relative viability was 0.355.

Question: And the relative viability (HCC-44; first compound 0.04 µM)?
Answer: The relative viability was 0.616.

Question: And the relative viability (HCC-44; first compound 0.1265 µM)?
Answer: The relative viability was 0.573.

Question: What about the relative viability (HCC-44; first compound 0.4 µM) of the same molecule?
Answer: Its relative viability is 0.465.

Question: And the relative viability (HCC-44; first compound 4 µM)?
Answer: The relative viability was 0.287.

Question: What about the relative viability (BEN; first compound 0.04 µM) of the same molecule?
Answer: The relative viability was 0.556.

Question: What about the relative viability (BEN; first compound 0.1265 µM) of the same molecule?
Answer: The relative viability was 0.537.

Question: And the relative viability (BEN; first compound 0.4 µM)?
Answer: Its relative viability is 0.601.

Question: And the relative viability (BEN; first compound 4 µM)?
Answer: The relative viability was 0.513.

Question: What about the relative viability (SK-LU-1; first compound 0.04 µM) of the same molecule?
Answer: Its relative viability is 0.657.

Question: What about the relative viability (SK-LU-1; first compound 0.1265 µM) of the same molecule?
Answer: The relative viability was 0.594.

Question: What about the relative viability (SK-LU-1; first compound 0.4 µM) of the same molecule?
Answer: Its relative viability is 0.702.

Question: What about the relative viability (SK-LU-1; first compound 4 µM) of the same molecule?
Answer: The relative viability was 0.484.

Question: What about the relative viability (LC-2-ad; first compound 0.04 µM) of the same molecule?
Answer: The relative viability was 1.12.

Question: And the relative viability (LC-2-ad; first compound 0.1265 µM)?
Answer: Its relative viability is 0.43.

Question: And the relative viability (LC-2-ad; first compound 0.4 µM)?
Answer: The relative viability was 0.29.

Question: And the relative viability (LC-2-ad; first compound 4 µM)?
Answer: Its relative viability is 0.537.

Question: And the relative viability (NCI-H2170; first compound 0.1265 µM)?
Answer: Its relative viability is 0.343.

Question: And the relative viability (NCI-H2170; first compound 0.4 µM)?
Answer: Its relative viability is 0.274.

Question: And the relative viability (NCI-H2170; first compound 4 µM)?
Answer: The relative viability was 0.339.

Question: What about the relative viability (NCI-H1792; first compound 0.04 µM) of the same molecule?
Answer: Its relative viability is 0.242.

Question: And the relative viability (NCI-H1792; first compound 0.1265 µM)?
Answer: Its relative viability is 0.264.

Question: And the relative viability (NCI-H1792; first compound 0.4 µM)?
Answer: Its relative viability is 0.274.

Question: What about the relative viability (NCI-H1792; first compound 4 µM) of the same molecule?
Answer: Its relative viability is 0.287.

Question: What about the relative viability (NCI-H596; first compound 0.04 µM) of the same molecule?
Answer: Its relative viability is 0.386.

Question: And the relative viability (NCI-H596; first compound 0.1265 µM)?
Answer: Its relative viability is 0.417.

Question: And the relative viability (NCI-H596; first compound 0.4 µM)?
Answer: The relative viability was 0.404.

Question: And the relative viability (NCI-H596; first compound 4 µM)?
Answer: Its relative viability is 0.41.

Question: What about the relative viability (HARA; first compound 0.04 µM) of the same molecule?
Answer: The relative viability was 0.383.

Question: What about the relative viability (HARA; first compound 0.1265 µM) of the same molecule?
Answer: The relative viability was 0.37.

Question: And the relative viability (HARA; first compound 0.4 µM)?
Answer: Its relative viability is 0.226.

Question: What about the relative viability (HARA; first compound 4 µM) of the same molecule?
Answer: Its relative viability is 0.372.

Question: And the relative viability (LOU-NH91; first compound 0.04 µM)?
Answer: The relative viability was 0.554.

Question: What about the relative viability (LOU-NH91; first compound 0.1265 µM) of the same molecule?
Answer: Its relative viability is 0.529.

Question: What about the relative viability (LOU-NH91; first compound 0.4 µM) of the same molecule?
Answer: Its relative viability is 0.505.

Question: What about the relative viability (LOU-NH91; first compound 4 µM) of the same molecule?
Answer: Its relative viability is 0.539.

Question: And the relative viability (NCI-H2087; first compound 0.04 µM)?
Answer: Its relative viability is 1.05.

Question: And the relative viability (NCI-H2087; first compound 0.1265 µM)?
Answer: The relative viability was 0.806.

Question: And the relative viability (NCI-H2087; first compound 0.4 µM)?
Answer: The relative viability was 1.02.

Question: What about the relative viability (NCI-H2087; first compound 4 µM) of the same molecule?
Answer: Its relative viability is 0.541.

Question: And the relative viability (NCI-H1734; first compound 0.04 µM)?
Answer: Its relative viability is 0.526.

Question: What about the relative viability (NCI-H1734; first compound 0.1265 µM) of the same molecule?
Answer: The relative viability was 0.489.

Question: And the relative viability (NCI-H1734; first compound 0.4 µM)?
Answer: Its relative viability is 0.468.

Question: And the relative viability (NCI-H1734; first compound 4 µM)?
Answer: Its relative viability is 0.487.

Question: And the relative viability (NCI-H2228; first compound 0.04 µM)?
Answer: The relative viability was 0.355.

Question: And the relative viability (NCI-H2228; first compound 0.1265 µM)?
Answer: Its relative viability is 0.256.

Question: What about the relative viability (NCI-H2228; first compound 0.4 µM) of the same molecule?
Answer: Its relative viability is 0.372.

Question: What about the relative viability (NCI-H2228; first compound 4 µM) of the same molecule?
Answer: The relative viability was 0.472.

Question: And the relative viability (NCI-H647; first compound 0.04 µM)?
Answer: Its relative viability is 0.258.

Question: And the relative viability (NCI-H647; first compound 0.1265 µM)?
Answer: The relative viability was 0.397.

Question: And the relative viability (NCI-H647; first compound 0.4 µM)?
Answer: Its relative viability is 0.204.

Question: What about the relative viability (NCI-H647; first compound 4 µM) of the same molecule?
Answer: The relative viability was 0.393.

Question: What about the relative viability (NCI-H1355; first compound 0.04 µM) of the same molecule?
Answer: Its relative viability is 0.229.

Question: What about the relative viability (NCI-H1355; first compound 0.1265 µM) of the same molecule?
Answer: Its relative viability is 0.43.

Question: And the relative viability (NCI-H1355; first compound 0.4 µM)?
Answer: Its relative viability is 0.418.

Question: What about the relative viability (NCI-H1355; first compound 4 µM) of the same molecule?
Answer: The relative viability was 0.331.

Question: What about the relative viability (HCC-827; first compound 0.04 µM) of the same molecule?
Answer: Its relative viability is 0.987.

Question: What about the relative viability (HCC-827; first compound 0.1265 µM) of the same molecule?
Answer: The relative viability was 1.03.

Question: What about the relative viability (HCC-827; first compound 0.4 µM) of the same molecule?
Answer: The relative viability was 1.22.

Question: What about the relative viability (HCC-827; first compound 4 µM) of the same molecule?
Answer: The relative viability was 0.995.

Question: And the relative viability (NCI-H1395; first compound 0.04 µM)?
Answer: The relative viability was 0.66.

Question: What about the relative viability (NCI-H1395; first compound 0.1265 µM) of the same molecule?
Answer: Its relative viability is 0.556.

Question: And the relative viability (NCI-H1395; first compound 0.4 µM)?
Answer: Its relative viability is 0.502.

Question: And the relative viability (NCI-H1395; first compound 4 µM)?
Answer: Its relative viability is 0.559.

Question: What about the relative viability (NCI-H1437; first compound 0.04 µM) of the same molecule?
Answer: The relative viability was 0.416.

Question: And the relative viability (NCI-H1437; first compound 0.1265 µM)?
Answer: The relative viability was 0.45.

Question: What about the relative viability (NCI-H1437; first compound 0.4 µM) of the same molecule?
Answer: Its relative viability is 0.339.

Question: What about the relative viability (NCI-H1437; first compound 4 µM) of the same molecule?
Answer: Its relative viability is 0.477.
